For one data set, the system named is fibronectin. The experiment in a line: Fibronectin synthesis by normal human fibroblasts of the dermis (NHDF), ELISA. The format is cell-based. Conditions: 24 h or 48 h. The protocol:
The applied test was based on the synthesis of fibronectin induced by TGF-β by cells of normal human fibroblasts of the dermis (NHDF) in a monolayer culture. The culture was produced by using as a culture medium DMEM (Eurobio, CMODME70-08) containing 10% of fetal calf serum (Eurobio, CVFSV00-0U), 1% of antibiotics (penicillin/streptomycin, Eurobio, CABPES01-OU) and 1% of L-glutamine (Eurobio, CSTGLUOO-OU), at a temperature of 37° C. under 5% of CO2 and 95% of humidity.
The cells were then sown, in the presence of complete DMEM, in microplates in an amount of 2.5*10^4 cells per well and then incubated at a temperature of 37° C. under 5% of CO2 and 95% of humidity. The culture medium was replaced after 24 hours in order to bring the cells to a quiescent state.
Next, the cells were incubated in the presence of TGF-β or swertiamarin for 24 h or 48 h. The cell supernatants were then collected in order to quantify fibronectin by an ELISA test (BMS028, Ebiosciences). The cell viability level was also determined by the standard MTT test. As a control, cells were incubated under the same conditions but in the absence of TGF-β and of swertiamarin (control).
The results are expressed as a percentage of the amount of fibronectin produced per mL relative to the amount of fibronectin produced by the group of control experiments.
(ELISA stands for enzyme-linked immunosorbent assay.)

A further data set relates to human keratinocytes. Put plainly: Scratch assay on monolayer culture of human keratinocytes. The format is cell-based. Conditions: 72 hours. As for the experimental part:
Normal keratinocytes surgically sampled in a person were cultivated so as to obtain a monolayer culture of keratinocytes.
When confluence was attained, a lesion (“scratch”) was carried out in each cell culture so as to locally remove an equivalent amount of keratinocytes.
Each culture of keratinocytes was then incubated at 37° C. in a humid atmosphere and in the presence of 5% of CO2, in the presence of an adipocyte culture medium conditioned with swertiamarin (0.0025%; 0.005%; 0.0075% by weight), for 72 hours. The swertiamarin was introduced into the adipocyte culture medium by dilution of a stock solution at 10% in DMSO. The final amount of DMSO in the culture media is 0.15%. […]
The surface corresponding to the “lesion” (i.e. to the area where the keratinocytes were removed) was measured before (t=0) and after incubation for each cell culture from photographs obtained by optical microscopy by using the software package Image J.
The results were expressed as a percentage of re-colonized surface relative to the surface observed at t=0.
The statistical significance of the differences obtained between the groups “DMSO Control” and the groups “TGF-β Controls” was evaluated by using the t-test (***: p<0.001). […]

Data set [1] concerns keratinocyte growth factor (KGF). The experiment in a line: KGF quantification by ELISA in culture medium of human adipocytes. Conditions: 0.0075% by weight of swertiamarin, 15 hours, normal human adipocytes, vs DMSO control. The format is cell-based. As for the experimental part:
A stock solution at 10% by weight of swertiamarin in DMSO was prepared. This solution was then diluted in the culture medium so as to obtain a final concentration of 0.0075% by weight of swertiamarin.
A culture of normal human adipocytes, obtained from adipocytes sampled by abdominal plastic surgery in a person, was incubated for 15 hours with the culture medium containing swertiamarin. As a negative control, a culture of adipocytes incubated for 15 hours with a culture medium without any swertiamarin but containing the same amount of DMSO was used.
At the end of the incubation, the amount of KGF was quantified in each culture medium by an ELISA test. The statistical significance of the differences between the “control” groups and the “test groups” was evaluated by variance analysis (One way Anova) followed by the Holm Sida test (p*<0.05).

Procedure for human skin explants: 21 skin explants with a diameter of 10 mm were prepared from these samples, among which 12 are skin explants without any adipose tissue (epidermis+dermis explant) and 9 are full skin explants (epidermis+dermis+hypodermis). The explants are maintained alive in a BEM medium at 37° C. in the presence of a humid atmosphere with 5% of CO2. The skin explants were distributed into three groups: • Group 1: a cream containing swertiamarin (SWT) in an amount of 0.025% was applied at days 0, 1, 2, 3, 6 and 7 of the incubation, to the surface of the skin explants by means of a spatula (1 μl in the morning and 1 μl in the evening), • Group 2: a placebo cream (free of swertiamarin) was applied on days 0, 1, 2, 3, 6 and 7 of the incubation, to the surface of the skin explants by means of a spatula (1 μl in the mornings and 1 μl in the evenings), • Group 3: this control group was maintained alive without any treatment (without application of a placebo cream or of cream based on swertiamarin).
On day 9, the skin explants are recovered, chemically bound in a formol solution for 24 hours, dehydrated, impregnated with paraffin and then infiltrated with resin according to the SOP H-53 protocol. Fine cuts are then made in each explant and observed by optical microscopy after staining.

For the substance Swertiamarin, the “increase of the amount of fibronectin vs control” value with fibronectin (0.005% swertiamarin) is “more than 171%”. For the same substance, the “increase of the surface area re-colonized by the keratinocytes vs DMSO Control” value in the data set with human keratinocytes (adipocyte culture medium conditioned with 0.0025% swertiamarin) was “+64.6%”. Besides, in the data set on human skin explants, the “morphological alteration of treated skin explants” value is reported as “do not exhibit any notable morphological alteration”. The “increase in the average amount of KGF in the culture medium” value in data set [1] is “about 16.4%”.

TGF-β [reference compound]: in the data set on fibronectin (TGF-β), the “production of fibronectin vs control” value is given as “+64%”. In addition, the “cell re-colonization (re-colonized surface) vs DMSO Control” value in the data set with human keratinocytes (TGF-β 10 ng/ml, p<0.001) is given as “+124.1%”.

The values are drawn from patent US11285093B2, “Cosmetic uses of swertiamarin” (LUCAS MEYER COSMETICS, priority 2014, dated 2022).
